# Results published in patent US20040052799A1, “Nucleic acid and amino acid sequences relating to Helicobacter pylori for diagnostics and therapeutics” (Astra Aktiebolag, priority 1996, published 2004).
# Like-named read-outs stand apart in the source and are kept apart here.
# Columns and labels:
# [1] = Stability of ASA in solution; format: physicochemical
# Experimental: ASA in 4 N HCl was prepared daily for use in Asd assays by partial neutralization with addition of 1.0 equivalent of […], with a resulting pH=1-2. The amount of ASA was determined enzymatically by complete reaction in the presence of excess NADP^+and phosphate. […] These observations are consistent with previous reports on the stability of ASA (Karsten et al., 1991, Biochim. Biophys. Acta 1077, 209-219). Assays were performed in the following buffer: 200 mM HEPES, 0.3 mM NADP^+, 30 mM NaH2PO4, 1.0 mM DTT, pH 7.5 or pH 8.0. ASA was used in the assay at concentrations of 5-165 μM by diluting the partially-neutralized ASA stock into the assay 10-200 fold, leading to a decrease in pH of 0.1 units or less. Reaction was initiated with the addition of enzyme to a final concentration of 3.5-70 nM.
# [2] = molecular target: T1, H. pylori glutamate racemase (Helicobacter pylori, UniProt Q9ZLT0); assay: Inactivation of glutamate racemase by L-serine-O-sulfate, single enzyme coupled assay; format: biochemical; conditions: 20 mM L-serine-O-sulfate, different incubation times, FIG. 7
# T1 construct: made in house; host or cells: E. coli BL21(DE3) carrying pET-23-murI and pACYC-groE (GroES/GroEL co-expressed)
# Experimental: In this assay, the conversion of D-glutamic acid to L-glutamic acid is coupled to the conversion of L-glutamic acid and NAD^+by L-glutamate dehydrogenase to 2-oxoglutarate, ammonia. The production of NADH is measured as an increase of absorbance at 340 nm (the reduction of NAD^+ to NADH) at 37° C. The standard assay mixture (adapted from Choi, S- Y, Esaki, N., Yoshimura, T., and Soda, K., 1991, Protein Expression and Purification 2, 90-93) contained 10 mM Tris-HCl, pH 7.5, 5 mM NAD+, 5 Units/ml L-glutamate dehydrogenase, varying concentrations of the substrate D-Glutamic Acid (0.063 mM to 250 mM), and the purified recombinant H. pylori enzyme glutamate racemase (1 μg to 50 μg). The reaction was started by the addition of either the substrate D-glutamic acid or the recombinant glutamate racemase after a preincubation at 37° C. for 5 minutes with all of the other assay ingredients. The change in absorbance at 340 nm was measured in a Spectra MAX 250. Initial velocities were derived from the initial slopes. […]
# The H. pylori glutamate racemase was tested for inactivation with a sucuide inhibitor, L-serine-O sulfate, which is known to inhibit murI from E. coli. […] The initial velocity of purified recombinant H. pylroi murI protein was determined in the single enzyme coupled asssay following incubation with the inhibitor L-serine-O-sulfate (LSOS) at 20 mM for the times indicated on the x-axis. […]
# [3] = tested on: H. pylori (strain AH244); format: in vivo; conditions: BALB/c mice infected with strain AH244, 100 μg antigen + 10 μg CT orally, compared to control, FIGS. 3 and 4
# [4] = molecular target: T2, E. coli Asd (Escherichia coli, UniProt P0A9Q9); assay: Asd assay, reverse reaction, NADPH formation; format: biochemical; conditions: pH 7.5; read-out: Km for phosphate
# T2 construct: made in house; host or cells: E. coli HMS174 pLysS, pET28b
# T2 sequence (P0A9Q9 1-367): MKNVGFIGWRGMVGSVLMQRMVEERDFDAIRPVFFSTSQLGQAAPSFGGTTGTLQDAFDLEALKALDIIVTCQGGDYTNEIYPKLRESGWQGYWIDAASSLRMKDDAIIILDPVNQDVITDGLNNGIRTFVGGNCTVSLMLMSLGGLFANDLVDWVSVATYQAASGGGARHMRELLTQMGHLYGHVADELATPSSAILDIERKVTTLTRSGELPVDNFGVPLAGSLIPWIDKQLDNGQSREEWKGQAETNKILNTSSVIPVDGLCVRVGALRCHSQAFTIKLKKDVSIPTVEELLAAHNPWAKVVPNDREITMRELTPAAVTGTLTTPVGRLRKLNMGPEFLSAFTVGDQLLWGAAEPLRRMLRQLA
# Experimental: (§1) The enzymatic activity of purified His-tagged H. pylori Asd (SEQ ID NO: 6545) was characterized by assaying the reverse reaction of phosphorylation of L-aspartate-β-semialdehyde (ASA) to L-p-aspartyl phosphate, with concomitant reduction of NADP^+ to NADPH. The formation of NADPH was detected by its absorbance, 340 nm, or by its fluorescence, excitation =340 nm, emission 455 nm.
# (§2) ASA in 4 N HCl was prepared daily for use in Asd assays by partial neutralization with addition of 1.0 equivalent of […], with a resulting pH=1-2. The amount of ASA was determined enzymatically by complete reaction in the presence of excess NADP^+and phosphate. […] Assays were performed in the following buffer: 200 mM HEPES, 0.3 mM NADP^+, 30 mM NaH2PO4, 1.0 mM DTT, pH 7.5 or pH 8.0. ASA was used in the assay at concentrations of 5-165 μM by diluting the partially-neutralized ASA stock into the assay 10-200 fold, leading to a decrease in pH of 0.1 units or less. Reaction was initiated with the addition of enzyme to a final concentration of 3.5-70 nM.
# [5] = molecular target: H. pylori Asd (Helicobacter pylori, UniProt Q9ZK28); assay: Asd assay, reverse reaction, NADPH formation; conditions: read-out: Km for phosphate; pH 8.0
# Experimental: as §1, §2
# T1 sequence (Q9ZLT0 whole entry): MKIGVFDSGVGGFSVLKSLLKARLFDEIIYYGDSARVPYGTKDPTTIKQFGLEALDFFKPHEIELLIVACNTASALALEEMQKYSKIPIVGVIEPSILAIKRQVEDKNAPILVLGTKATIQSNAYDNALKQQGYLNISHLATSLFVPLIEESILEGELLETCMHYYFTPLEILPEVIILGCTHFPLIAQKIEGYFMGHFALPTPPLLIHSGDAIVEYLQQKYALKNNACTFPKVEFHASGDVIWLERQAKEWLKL
# H. pylori Asd, sequence (Q9ZK28 whole entry): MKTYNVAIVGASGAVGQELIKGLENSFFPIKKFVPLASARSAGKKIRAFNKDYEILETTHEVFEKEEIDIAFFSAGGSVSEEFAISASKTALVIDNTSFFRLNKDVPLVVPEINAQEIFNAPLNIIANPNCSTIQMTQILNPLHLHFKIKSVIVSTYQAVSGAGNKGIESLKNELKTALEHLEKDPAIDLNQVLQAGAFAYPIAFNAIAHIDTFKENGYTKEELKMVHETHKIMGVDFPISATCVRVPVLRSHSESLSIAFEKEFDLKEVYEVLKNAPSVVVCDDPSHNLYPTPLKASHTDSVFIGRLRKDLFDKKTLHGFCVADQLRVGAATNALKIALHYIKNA
molecule,measurement,setting,value
"N[C@@H](CC=O)C(=O)O [ASA, L-aspartate-β-semialdehyde]",half-life,"[1]; assay buffer, pH 7.7 (under assay conditions), read-out: t½ (converted)",5 h
same,time ASA found to be stable,[1]; pH 1.4,up to 48 hours
N[C@@H](COS(=O)(=O)O)C(=O)O [L-Serine-O-Sulfate],inactivation of glutamate racemase by the inhibitor (residual initial velocity),[2],readily inactivated
lacZ: non-Helicobacter pylori control protein (β-galactosidase from E. coli) constructed with a hexa-HIS tag [reference compound],degree of colonization of the antrum,[3],higher Helicobacter colonization
same,reduction and/or eradication of the H. pylori infection (therapeutic immunization effect),[3],no eradication effect
same,degree of colonization of the antrum,[3]; listed as LacZ,highest colonization in the antrum
phosphate [reference compound],Km,[4],1300 µM
same,Km,[5],2100 µM
